Data as given in publication PMC5082600, “New furoisocoumarins and isocoumarins from the mangrove endophytic fungus Aspergillus sp. 085242” (Beilstein Journal of Organic Chemistry, 2016).

Legend:
[1] = DPPH free radical scavenging assay; settings: DPPH 150 μM in MeOH, 30 min, room temperature, absorbance at 490 nm; vitamin C as positive control
Procedure: The assay for DPPH radical scavenging activity was measured by a reported method, with slight modifications. Firstly, 180 μL of DPPH^· (150 μM in MeOH) and 20 μL of a series of test compound solutions (31.2, 62.5, 125, 250, 500 μM in MeOH) were mixed in each well of a 96-well microtiter plate. The reaction was measured by determination of the absorbance Asample+DPPH· using a microtiter plate reader at 490 nm after shaking for 30 min at room temperature in the dark. Twenty μL test samples of each concentration with 180 μL of MeOH were used as the blank measurement for each tested compound, and the absorbance was recorded as Asample. The absorbance of the mixture of 20 μL of MeOH and 180 μL of DPPH^· was recorded as ADPPH·, and the absorbance of the 200 μL of MeOH was measured as Ablank. The natural antioxidant vitamin C was used as a positive control. Calculations of the DPPH^· scavenging activity was performed according to the following equation: scavenging activity (%) = [1 − (Asample+DPPH· − Asample)/(ADPPH· − Ablank)] × 100%. All measurements were done in triplicate from two independent experiments. The reported EC50 was the average value of two independent experiments.

EC50 [1] [µM] | melting point [°C] | SMILES
35 | – | O=C1O[C@H]([C@@H](O)CO)C(O)=C1O [vitamin C, reference compound]
– | 201.1 to 203 | COc1cc2c(c(O)c1COCc1c(OC)cc3c(c1O)C(=O)OCC3)C(=O)OCC2 [Compound 6, asperisocoumarin F]
– | 179.4 to 181.4 | CC(C)[C@H]1Oc2c(ccc3c2C(=O)O[C@H](C)C3)[C@H]1O [Compound 2, asperisocoumarin B]
125 | – | CC(C)=C1Oc2c(ccc3cc(C)oc(=O)c23)C1=O [Compound 1, 7-methyl-2-(propan-2-ylidene)-9H-furo[3,2-h]isochromene-3,9(2H)-dione]
130 | – | CC(C)c1cc2ccc3c(c2o1)C(=O)O[C@H](C)C3 [Compound 3, (R)-2-isopropyl-7-methyl-6,7-dihydro-9H-furo[3,2-h]isochromen-9-one]
